# Assay results published in patent US9809865B2, “Anti-microbial agent from Paenibacillus sp. and methods and uses thereof” (Best Environmental Technologies, Inc., priority 2009, dated 2017).
# Columns and labels:
# Escherichia coli LRC TB1 = assay: Agar well diffusion method; assay type: cell-based; settings: medium TSB; polymyxin B at 0.1 μg ml^−1
# Procedure: (§1) The qualitative antimicrobial spectrum of P. polymyxa culture supernatant was determined using the agar well diffusion method (Wolf and Gibbons 1996). Briefly, a 25-ml volume of molten tryptic soy agar (0.75% agar w/v) was cooled to 47° C. and seeded with 1% (v/v) overnight TSB culture of an indicator strain. The seeded agar was then poured into a sterile Petri plate and allowed to solidify at room temperature. Wells (7 mm) were cut in the solidified agar using a sterile metal cork borer and filled with 80 μl of supernatant. The plates were left at 5° C. for 2 h to allow diffusion of the tested aliquot and then incubated aerobically for 18 h at 30° C. Absence or presence of inhibition zones as well as their diameters were recorded.
# [1] = system: Pseudomonas fluorescens LRC R73; assay: Agar well diffusion method; assay type: cell-based; settings: medium TSB; polymyxin B at 0.1 μg ml^−1
# Procedure: as §1
# [2] = system: Escherichia coli LRC SA1650; assay: Agar well diffusion method; assay type: cell-based; settings: medium TSB; polymyxin B at 0.1 μg ml^−1
# Procedure: as §1
# Escherichia coli LRC RR1 = assay: Agar well diffusion method; assay type: cell-based; settings: medium TSB; polymyxin B at 0.1 μg ml^−1
# Procedure: as §1
# [3] = system: Pantoea agglomerans LRC BC1; assay: Agar well diffusion method; assay type: cell-based; settings: medium TSB; polymyxin B at 0.1 μg ml^−1
# Procedure: as §1
# [4] = system: Bacillus circulans LRC 9E2; assay: Agar well diffusion method; assay type: cell-based; set-up: key: No inhibition at concentrations up of 0.1 μgml−1.; +: Diameter of the inhibition zone 10 ± 2 mm; ++: Diameter of the inhibition zone 16 ± 2 mm; +++: Diameter of the inhibition zone 28 ± 2 mm; settings: medium LB; polymyxin B at 0.1 μg ml^−1
# Procedure: (§2) The qualitative antimicrobial spectrum of P. polymyxa culture supernatant was determined using the agar well diffusion method (Wolf and Gibbons 1996). […] The seeded agar was then poured into a sterile Petri plate and allowed to solidify at room temperature. Wells (7 mm) were cut in the solidified agar using a sterile metal cork borer and filled with 80 μl of supernatant. The plates were left at 5° C. for 2 h to allow diffusion of the tested aliquot and then incubated aerobically for 18 h at 30° C. Absence or presence of inhibition zones as well as their diameters were recorded.
# [5] = system: Enterococcus mundtii LRC 8369; assay: Agar well diffusion method; assay type: cell-based; set-up: key: No inhibition at concentrations up of 0.1 μgml−1.; +: Diameter of the inhibition zone 10 ± 2 mm; ++: Diameter of the inhibition zone 16 ± 2 mm; +++: Diameter of the inhibition zone 28 ± 2 mm; settings: medium LB; polymyxin B at 0.1 μg ml^−1
# Procedure: as §2
# [6] = system: Lactococcus lactis ATCC 7962; assay: Agar well diffusion method; assay type: cell-based; set-up: key: No inhibition at concentrations up of 0.1 μgml−1.; +: Diameter of the inhibition zone 10 ± 2 mm; ++: Diameter of the inhibition zone 16 ± 2 mm; +++: Diameter of the inhibition zone 28 ± 2 mm; settings: medium MRS; polymyxin B at 0.1 μg ml^−1
# Procedure: as §2
# [7] = system: Paenibacillus polymyxa ATCC 43865; assay: Agar well diffusion method; assay type: cell-based; set-up: key: No inhibition at concentrations up of 0.1 μgml−1.; +: Diameter of the inhibition zone 10 ± 2 mm; ++: Diameter of the inhibition zone 16 ± 2 mm; +++: Diameter of the inhibition zone 28 ± 2 mm; settings: medium LB; polymyxin B at 0.1 μg ml^−1
# Procedure: as §2
# [8] = system: Streptococcus bovis ATCC 33317; assay: Agar well diffusion method; assay type: cell-based; set-up: key: No inhibition at concentrations up of 0.1 μgml−1.; +: Diameter of the inhibition zone 10 ± 2 mm; ++: Diameter of the inhibition zone 16 ± 2 mm; +++: Diameter of the inhibition zone 28 ± 2 mm; settings: medium LB; polymyxin B at 0.1 μg ml^−1
# Procedure: as §2
# [9] = system: Bacillus lecheniformis LRC 8422; assay: Agar well diffusion method; assay type: cell-based; set-up: key: No inhibition at concentrations up of 0.1 μgml−1.; +: Diameter of the inhibition zone 10 ± 2 mm; ++: Diameter of the inhibition zone 16 ± 2 mm; +++: Diameter of the inhibition zone 28 ± 2 mm; settings: medium LB; polymyxin B at 0.1 μg ml^−1
# Procedure: as §2
# [10] = system: Pediococcus acidilactici ATCC 25740; assay: Agar well diffusion method; assay type: cell-based; set-up: key: No inhibition at concentrations up of 0.1 μgml−1.; +: Diameter of the inhibition zone 10 ± 2 mm; ++: Diameter of the inhibition zone 16 ± 2 mm; +++: Diameter of the inhibition zone 28 ± 2 mm; settings: medium MRS; polymyxin B at 0.1 μg ml^−1
# Procedure: as §2
# [11] = system: Pediococcus pentosaceus ATCC 25745; assay: Agar well diffusion method; assay type: cell-based; set-up: key: No inhibition at concentrations up of 0.1 μgml−1.; +: Diameter of the inhibition zone 10 ± 2 mm; ++: Diameter of the inhibition zone 16 ± 2 mm; +++: Diameter of the inhibition zone 28 ± 2 mm; settings: medium LB; polymyxin B at 0.1 μg ml^−1
# Procedure: as §2
# [12] = system: Paenibacillus polymyxa ATCC 7070; assay: Agar well diffusion method; assay type: cell-based; set-up: key: No inhibition at concentrations up of 0.1 μgml−1.; +: Diameter of the inhibition zone 10 ± 2 mm; ++: Diameter of the inhibition zone 16 ± 2 mm; +++: Diameter of the inhibition zone 28 ± 2 mm; settings: medium LB; polymyxin B at 0.1 μg ml^−1
# Procedure: as §1
# [13] = system: Paenibacillus polymyxa JB05-01-1; assay: Agar well diffusion method; assay type: cell-based; set-up: key: No inhibition at concentrations up of 0.1 μgml−1.; +: Diameter of the inhibition zone 10 ± 2 mm; ++: Diameter of the inhibition zone 16 ± 2 mm; +++: Diameter of the inhibition zone 28 ± 2 mm; settings: medium LB; polymyxin B at 0.1 μg ml^−1
# Procedure: as §1
# Listeria ivanovii HPB 28 = assay: Agar well diffusion method; assay type: cell-based; set-up: key: No inhibition at concentrations up of 0.1 μgml−1.; +: Diameter of the inhibition zone 10 ± 2 mm; ++: Diameter of the inhibition zone 16 ± 2 mm; +++: Diameter of the inhibition zone 28 ± 2 mm; settings: medium TSB; polymyxin B at 0.1 μg ml^−1
# Procedure: as §1
# Listeria innocua HPB 13 = assay: Agar well diffusion method; assay type: cell-based; set-up: key: No inhibition at concentrations up of 0.1 μgml−1.; +: Diameter of the inhibition zone 10 ± 2 mm; ++: Diameter of the inhibition zone 16 ± 2 mm; +++: Diameter of the inhibition zone 28 ± 2 mm; settings: medium TSB; polymyxin B at 0.1 μg ml^−1
# Procedure: as §1
# E. coli RR1 = assay: Effect of culture supernatant on exponentially growing E. coli RR1 (viable counts, OD600); assay type: cell-based, Escherichia coli; settings: viability of E. coli RR1 cells; OD600nm constant
# Procedure: To determine the effect of P. polymyxa JB05-01-1 culture supernatant, E. coli RR1 cells were cultivated in the presence of concentrated P. polymyxa culture supernatant containing JB05-01-1 at final total activity of 0, 32, and 96 AU/ml. The OD600nm of culture was determined every two hours using a multi-detection microplate reader (Bio-Teck instrument Inc, Winooski, Vt., USA). The corresponding final cell concentration expressed as CFU/ml was determined as described by Naghmouchi et al. (2008). The inhibitory activity (I.A.) of culture supernatant containing JB05-01-1 was calculated as a percentage, I.A.=100-100[OD600(x)/OD600(i)], where (x) is culture supernatant containing JB05-01-1 at the corresponded total activity and (i) is the control culture. Data was reported as means of duplicate analyses.
# [14] = system: Butyrivibrio fibrisolvens LRC OR85; assay: Agar well diffusion method; assay type: cell-based; settings: medium L-10; polymyxin B at 0.1 μg ml^−1
# Procedure: as §2
# [15] = system: Fibrobacter succinogenes ATCC 19169; assay: Agar well diffusion method; assay type: cell-based; settings: medium L-10; polymyxin B at 0.1 μg ml^−1
# Procedure: as §2
# Escherichia coli RR1 = assay: Sensitivity to enzymes, detergents or urea, residual activity by agar diffusion test; assay type: physicochemical; settings: polymyxin B 0.1 μg ml^−1
# Procedure: The sensitivities of the antimicrobial agent to proteases (all from Sigma-Aldrich, Oakville, ON) or other agents was tested by treating P. polymyxa JB05-01-1 culture supernatant with 2 mg ml^−1 final concentration of proteinase K (Tritirachium album), α-chymotrypsin (bovine pancreas), lipase (Sigma-Aldrich, Oakville, ON), trypsin (porcine pancreas), urea (Sigma-Aldrich, St. Louis Mo.), sodium dodecyl sulfate (SDS) (Sigma-Aldrich, St. Louis Mo.) for 1 h at 37° C. (Motta et al. 2007). Thermal stability of the antimicrobial activity was determined by holding aliquots (1000 μl) of 20 h culture supernatant at temperatures ranging from 50° C. to 90° C. for 30 min or at 100° C. for 10 min. The effect of pH was determined by adjusting the pH of P. polymyxa JB05-01-1 culture supernatant from 2 to 9 using 5 M HCl or NaOH. The activity of each sample was compared with the activity of untreated P. polymyxa JB05-01 culture supernatant at pH 6.8.
# The effect of several organic solvents was evaluated by stirring 20 h culture supernatant for 2 h with 10% (v/v) acetonitrile, hexane, propanol, ethanol, toluene, acetone, butanol or methanol (all solvents were obtained from Sigma-Aldrich, St. Louis Mo.). Residual antimicrobial activities were tested using the agar diffusion assay against E. coli RR1 as described herein, with controls for effects of residual solvent.
substance,measurement,setting,value
Polymyxin B,Inhibition (inhibition zone),Escherichia coli LRC TB1,+++ (Diameter of the inhibition zone 28 ± 2 mm)
same,Inhibition (inhibition zone),[1],++ (Diameter of the inhibition zone 16 ± 2 mm)
same,Inhibition (inhibition zone),[2],++ (Diameter of the inhibition zone 16 ± 2 mm)
same,Inhibition (inhibition zone),Escherichia coli LRC RR1,+++ (Diameter of the inhibition zone 28 ± 2 mm)
same,Inhibition (inhibition zone),[3],+ (Diameter of the inhibition zone 10 ± 2 mm)
same,Inhibition (inhibition zone),[4],−
same,Inhibition (inhibition zone),[5],−
same,Inhibition (inhibition zone),[6],−
same,Inhibition (inhibition zone),[7],−
same,Inhibition (inhibition zone),[8],−
same,Inhibition (inhibition zone),[9],−
same,Inhibition (inhibition zone),[10],−
same,Inhibition (inhibition zone),[11],−
same,Inhibition (inhibition zone),[12],−
same,Inhibition (inhibition zone),[13],−
same,Inhibition (inhibition zone),Listeria ivanovii HPB 28,−
same,Inhibition (inhibition zone),Listeria innocua HPB 13,−
same,Mode of action,E. coli RR1,bactericidal action
same,Inhibition (inhibition zone),[14],+ (Diameter of the inhibition zone 10 ± 2 mm)
same,Inhibition (inhibition zone),[15],+ (Diameter of the inhibition zone 10 ± 2 mm)
same,% of residual activity,"Escherichia coli RR1; Chymotrypsin 2 mg ml^−1, 1 h at 37° C.",79.5%
same,% of residual activity,"Escherichia coli RR1; Lipase 2 mg ml^−1, 1 h at 37° C.",58.3%
same,% of residual activity,"Escherichia coli RR1; Proteinase K 2 mg ml^−1, 1 h at 37° C.",4.5%
same,% of residual activity,"Escherichia coli RR1; SDS 2 mg ml^−1, 1 h at 37° C.",70.1%
same,% of residual activity,"Escherichia coli RR1; Trypsin 2 mg ml^−1, 1 h at 37° C.",62.5%
same,% of residual activity,"Escherichia coli RR1; Urea 2 mg ml^−1, 1 h at 37° C.",62.5%
